Source: patent US9618507B2, “Methods of treating rheumatoid arthritis” (Betanien Hospital, priority 2014, dated 2017)
Marks after values point to notes of the source that are not given here. Where a SMILES comes first, the peptide text is derived from it. [ ]: non-standard residue; d: D form. dPhe(4-Cl) = N[C@H](Cc1ccc(Cl)cc1)C(=O)O; d2Nal = N[C@H](Cc1ccc2ccccc2c1)C(=O)O; dCit = NC(=O)NCCC[C@@H](N)C(=O)O; d3Pal = N[C@H](Cc1cccnc1)C(=O)O

What was measured:
RA patients = assay: Example 1: randomized, double-blind, placebo-controlled study, disease activity (DAS28-CRP, ACR responses, core set measures); format: in vivo, human
Description: In this randomized, double-blind, placebo-controlled, single-centre study, males and females aged ≧18 years with RA according to the 1987 revised American College of Rheumatology (ACR) criteria, and with a 28-joint Disease Activity Score based on C-reactive protein (DAS28-CRP)>3.2 were enrolled.
Ethical committee approval was obtained. […] Safety and efficacy visits, with blood sampling, were between 0730 and 0930 h on days 1 (baseline), 2, 3, 4, 5 (visit 5a), 10, and 15. There was an additional visit (visit 5b) between 1930 and 2130 h when maximum GnRH suppression was anticipated.
Predefined secondary end-points included the baseline adjusted between-group difference inTNF-α, ACR20/50/70 responses, European League Against Rheumatism (EULAR) responses, DAS28-CRP <2.6 and ≦3.2, and adverse events.
Menstruating women could only enter the study in the early follicular phase of their menstrual cycle. The concomitant use of stable doses of disease-modifying anti-rheumatic drugs (DMARDs) for at least 8 weeks, stable prednisolone ≦7.5 mg daily for at least 4 weeks, and stable non-steroidal anti-inflammatory drugs (NSAIDs) for at least 2 weeks was allowed if these doses were continued throughout the study. Key exclusion criteria were as follows: pregnancy or breastfeeding females; corticosteroid injections within the trial or 4 weeks prior to screening; biological agents were not permitted during the trial or within 4 weeks prior to inclusion in the trial (with the exception of infliximab or adalimumab which were not permitted within 3 months prior to inclusion in the trial; and rituximab which was not permitted within 6 months prior to inclusion in the trial). A history of hormone-dependent cancers ever or non-hormone-dependent cancers within 5 years prior to screening: infections requiring intravenous antibiotic treatment within 30 days, or oral antibiotics within 14 days prior to enrolment; significant renal or hepatic impairment; and any treatment with hormone replacement therapy or oral contraception were also exclusion criteria.
The Newcombe hybrid score interval was used to estimate 95% confidence intervals (CI) for the difference between proportions (Fagerland M W, et al., Stat Methods Med Res 2011). No adjustments for multiple analyses were made, owing to the highly correlated variables. All clinical, biochemical, and safety data were analyzed by an intention-to-treat analysis. Only predefined endpoints are presented. The intention-to-treat population was predefined in the protocol as all randomized patients who received any injections of study drug. Missing values were <1% and could, as predefined, be imputed with the last observation carried forward. The assumptions of normality needed for analyses were approximately valid. The Spearman rank correlation coefficient (Spearman's rho) was used to estimate the association between pairs of continuous variables.

interleukin-10 = assay: Example 2: serum cytokine, multiplex high-sensitivity assay, interleukin-10; format: in vivo, human; details: high gonadotropin patients
Description: The protocol-specified primary and secondary intention-to-treat endpoints of the original AGRA trial were analyzed in these post hoc analyses. The primary endpoint was the baseline-adjusted between-group difference in DAS28-CRP (Wells et al., supra) by day 5b. Secondary endpoints included the baseline-adjusted between-group difference in cytokines, proportions of patients achieving at least a 20%, 50%, and 70% improvement on the ACR scale (Felson D T, et al., Arthritis Rheum 1995; 38:727-35), categorical DAS28-CRP (European League Against […] [EULAR]) responses (Wells et al., supra; van Gestel A M, et al., Arthritis Rheum 1996; 39:34-40), DAS28-CRP≦3.2 (Wells et al., supra), DAS28-CRP<2.6 (Wells et al., supra), and the incidence of adverse events. Protocol-specified DAS28 outcomes were preferentially CRP-based rather than erythrocyte sedimentation rate (ESR)-based, as CRP usually changes before ESR. […] Multiplex technology (Luminex Inc., Austin, Tex.) measured these serum cytokines using high-sensitivity assays (sensitivities <0.5 pg/mL, allowing the detection of very low concentrations of cytokines) and identical lots of critical reagent of negligible cross-reactivity <2%, according to manufacturers' instructions (Bio-Rad, Hercules, Calif.). […] To enable intention-to-treat analyses with all patients N=53, non-detectable values were set at the lower limit of detection for cytokines, as is common for CRP values.
The original power calculation is previously reported (Kass A S, et al., Scand J Rheumatol Epub ahead of print 1 Nov. 2013). Baseline-adjusted between-group differences for all continuous endpoints were assessed with the use of analysis-of-covariance using outcome measurements at predefined time points as response variables, and treatment and baseline measurements as covariates. Dichotomous endpoints were compared with the Pearson chi-square test or Suissa-Shuster exact unconditional test, depending on expected-value distribution (Lydersen S, et al., Stat Med 2009; 28:1159-75). No adjustments for multiple analyses were made, owing to highly correlated endpoints. Due to skewed distributions, between-group changes of natural log-transformed cytokine levels from baseline were compared.

CC(=O)N[C@H](Cc1ccc2ccccc2c1)C(=O)N[C@H](Cc1ccc(Cl)cc1)C(=O)N[C@H](Cc1cccnc1)C(=O)N[C@@H](CO)C(=O)N[C@@H](Cc1ccc(O)cc1)C(=O)N[C@H](CCCNC(N)=O)C(=O)N[C@@H](CC(C)C)C(=O)N[C@@H](CCCNC(=N)N)C(=O)N1CCC[C@H]1C(=O)N[C@H](C)C(N)=O [cetrorelix] (Ac-[d2Nal][dPhe(4-Cl)][d3Pal]SY[dCit]LRP[dA]-NH2)
DAS28-CRP between-group difference vs placebo (RA patients; all patients, baseline adjusted, day 5, 95% CI −0.04 to 0.57, p 0.091): 0.26 | patients achieving DAS28-CRP<2.6 (RA patients; all patients, by day 5, placebo 0%): 13% | patients achieving ACR20 responses (RA patients; all patients, by day 5, placebo 18%): 40% | DAS28-CRP reduction by day 5 (RA patients; all patients, cetrorelix n=48, 5 mg/day s.c. days 1-2, 3 mg/day days 3-5, day 5): 0.82 | ACR50/70 responses compared with placebo (RA patients; all patients, day 5, FIG. 1A): More patients reached ACR50/70 responses | core set measures of disease activity compared with placebo (RA patients; all patients, except physician global assessment): non-significant greater improvements | DAS28-CRP reduction, prednisolone users (n 24) vs non-users (n 24) (RA patients; cetrorelix group, p 0.40): did not differ | IL-10 level, Final Day 15 (interleukin-10; N = 27, mean ± SD): −0.31 ± 2.1 log pg/mL | IL-10 Change from baseline by day 15 (interleukin-10; N = 27, placebo +0.13): −0.40 log pg/mL | interleukin-10 change compared with placebo (interleukin-10; by day 15, P=0.020): significantly decreased | IL-10 Baseline-Adjusted Between-Group Difference (interleukin-10; day 15, 95% CI (0.10, 1.08), P < 0.05): 0.59‡ log pg/mL
